Laboratory results from US20250101028A1, “HETEROCYCLIC COMPOUNDS, COMPOSITIONS THEREOF, AND METHODS OF TREATMENT THEREWITH” (BeiGene, Ltd., priority 2022, published 2025).

Target: T1, GST-tagged GDP-loaded KRAS G12V (amino acids 1-169) (Homo sapiens, UniProt P01116, G12V)
T1 construct: GST-tagged GDP-loaded KRAS G12V (amino acids 1-169); made in house; host or cells: E. coli
Test: KRAS G12V probe displacement assay (TR-FRET)
Format: binding
Details: displacement of biotinylated probe 2 from GDP-loaded KRAS G12V
Description: KRAS WT and KRAS G12V Probe Displacement Assay
This assay was used to identify compounds which bind to GDP-loaded KRAS protein and are able to displace a biotinylated probe occupying the KRAS binding site. GST-tagged GDP-loaded WT KRAS (amino acids 1-169) and GST-tagged GDP-loaded KRAS G12V (amino acids 1-169) were expressed in E. coli and purified in house. All protein and reaction solutions were prepared in assay buffer containing 50 mM HEPES pH7.5, 50 mM NaCl, 1 mM MgCl2, 1 mM TCEP, 0.01% BSA, and 0.008% Brij-35. Purified WT KRAS (3 nM final concentration) or KRAS G12V protein (2 nM final concentration) was incubated with a 3-fold serially diluted compound in the assay plate (384 well microplate, black, Corning). Plates are incubated at 24° C. for 1 hr. Following the incubation, biotinylated probe 1 (60 nM final assay concentration) for WT KRAS and biotinylated probe 2 (2.5 nM final assay concentration) for KRAS G12V was added to the assay plate, respectively. After 1 hr incubation at 24° C., Mab Anti-GST-Tb cryptate (Cisbio) and Streptavidin-XL665 (Cisbio) were added and further incubated at 24° C. for another 1 hr. The TR-FRET signals (ex337 nm, em665 nm/620 nm) were read on BMG PHERAstar FSX instrument. The inhibition percentage of KRAS protein binding with biotinylated probe in presence of increasing concentrations of compounds was calculated based on the ratio of fluorescence at 665 nm to that at 620 nm. The IC50 value of each compound was calculated from fitting the data to the four-parameter logistic model by Dotmatics.

T1 sequence (P01116 1-169 isoform P01116-2 G12V): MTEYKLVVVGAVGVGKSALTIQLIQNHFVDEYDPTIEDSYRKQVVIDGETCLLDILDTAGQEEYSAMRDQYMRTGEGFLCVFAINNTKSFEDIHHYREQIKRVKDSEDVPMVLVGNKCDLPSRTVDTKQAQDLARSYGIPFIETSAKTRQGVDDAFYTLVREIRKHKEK

Row | Compound | IC50
1 | N#C[C@H]1C[C@@H](Nc2nc(OC[C@@]34CCCN3C[C@H](F)C4)nc3c(F)c(-c4ccc(F)c5sc(N)nc45)c(C(F)(F)F)cc23)C1 [Example 18, (cis)-3-((7-(2-amino-7-fluorobenzo[d]thiazol-4-yl)-8-fluoro-2-(((2R,7aS)-2-fluorotetrahydro-1H-pyrrolizin-7a(5H)-yl)methoxy)-6-(trifluoromethyl)quinazolin-4-yl)amino)cyclobutane-1-carbonitrile] | 13 nM
2 | N#C[C@H]1C[C@H](Nc2nc(OC[C@@]34CCCN3C[C@H](F)C4)nc3c(F)c(-c4ccc(F)c5sc(N)nc45)c(C(F)(F)F)cc23)C1 [Example 19, (trans)-3-((7-(2-amino-7-fluorobenzo[d]thiazol-4-yl)-8-fluoro-2-(((2R,7aS)-2-fluorotetrahydro-1H-pyrrolizin-7a(5H)-yl)methoxy)-6-(trifluoromethyl)quinazolin-4-yl)amino)cyclobutane-1-carbonitrile] | 9.9 nM
3 | Nc1nc2c(-c3c(C(F)(F)F)cc4c(N[C@H]5C[C@@H](CO)C5)nc(OC[C@@]56CCCN5C[C@H](F)C6)nc4c3F)ccc(F)c2s1 [Example 20, ((cis)-3-((7-(2-amino-7-fluorobenzo[d]thiazol-4-yl)-8-fluoro-2-(((2R,7aS)-2-fluorotetrahydro-1H-pyrrolizin-7a(5H)-yl)methoxy)-6-(trifluoromethyl)quinazolin-4-yl)amino)cyclobutyl)methanol] | 7.9 nM
4 | Nc1nc2c(-c3c(C(F)(F)F)cc4c(N[C@H]5C[C@H](CO)C5)nc(OC[C@@]56CCCN5C[C@H](F)C6)nc4c3F)ccc(F)c2s1 [Example 21, ((trans)-3-((7-(2-amino-7-fluorobenzo[d]thiazol-4-yl)-8-fluoro-2-(((2R,7aS)-2-fluorotetrahydro-1H-pyrrolizin-7a(5H)-yl)methoxy)-6-(trifluoromethyl)quinazolin-4-yl)amino)cyclobutyl)methanol] | 4.1 nM
5 | Nc1nc2c(-c3c(C(F)(F)F)cc4c(NC5CC6(CCC6)C5)nc(OC[C@@]56CCCN5C[C@H](F)C6)nc4c3F)ccc(F)c2s1 [Example 22, 7-fluoro-4-(8-fluoro-2-(((2R,7aS)-2-fluorotetrahydro-1H-pyrrolizin-7a(5H)-yl)methoxy)-4-(spiro[3.3]heptan-2-ylamino)-6-(trifluoromethyl)quinazolin-7-yl)benzo[d]thiazol-2-amine] | 367 nM
6 | Nc1nc2c(-c3c(C(F)(F)F)cc4c(NC5CC6(COC6)C5)nc(OC[C@@]56CCCN5C[C@H](F)C6)nc4c3F)ccc(F)c2s1 [Example 23, 4-(4-((2-oxaspiro[3.3]heptan-6-yl)amino)-8-fluoro-2-(((2R,7aS)-2-fluorotetrahydro-1H-pyrrolizin-7a(5H)-yl)methoxy)-6-(trifluoromethyl)quinazolin-7-yl)-7-fluorobenzo[d]thiazol-2-amine] | 23 nM
7 | Nc1nc2c(-c3c(C(F)(F)F)cc4c(NC56CC(C5)C6)nc(OC[C@@]56CCCN5C[C@H](F)C6)nc4c3F)ccc(F)c2s1 [Example 24, 4-(4-(bicyclo [1.1.1]pentan-1-ylamino)-8-fluoro-2-(((2R,7aS)-2-fluorotetrahydro-1H-pyrrolizin-7a(5H)-yl)methoxy)-6-(trifluoromethyl)quinazolin-7-yl)-7-fluorobenzo[d]thiazol-2-amine] | 24 nM
8 | N#C[C@H]1CCC[C@H]1Nc1nc(OC[C@@]23CCCN2C[C@H](F)C3)nc2c(F)c(-c3ccc(F)c4sc(N)nc34)c(C(F)(F)F)cc12 [Example 26, (1S,2R)-2-((7-(2-amino-7-fluorobenzo[d]thiazol-4-yl)-8-fluoro-2-(((2R,7aS)-2-fluorotetrahydro-1H-pyrrolizin-7a(5H)-yl)methoxy)-6-(trifluoromethyl)quinazolin-4-yl)amino)cyclopentane-1-carbonitrile] | 11 nM
9 | Nc1nc2c(-c3c(C(F)(F)F)cc4c(NC5CCCCC5)nc(OC[C@@]56CCCN5C[C@H](F)C6)nc4c3F)ccc(F)c2s1 [Example 27, 4-(4-(cyclohexylamino)-8-fluoro-2-(((2R,7aS)-2-fluorotetrahydro-1H-pyrrolizin-7a(5H)-yl)methoxy)-6-(trifluoromethyl)quinazolin-7-yl)-7-fluorobenzo[d]thiazol-2-amine] | 503 nM
10 | Nc1nc2c(-c3c(Cl)cc4c(NC5CC5)nc(OC[C@@]56CCCN5C[C@H](F)C6)nc4c3F)ccc(F)c2s1 [Example 28, 4-(6-chloro-4-(cyclopropylamino)-8-fluoro-2-(((2R,7aS)-2-fluorotetrahydro-1H-pyrrolizin-7a(5H)-yl)methoxy)quinazolin-7-yl)-7-fluorobenzo[d]thiazol-2-amine] | 3.8 nM
11 | Nc1nc2c(-c3c(Cl)cc4c(N[C@H]5[C@@H]6COC[C@@H]65)nc(OC[C@@]56CCCN5C[C@H](F)C6)nc4c3F)ccc(F)c2s1 [Example 29, 4-(4-(((1R,5S,6r)-3-oxabicyclo[3.1.0]hexan-6-yl)amino)-6-chloro-8-fluoro-2-(((2R,7aS)-2-fluorotetrahydro-1H-pyrrolizin-7a(5H)-yl)methoxy)quinazolin-7-yl)-7-fluorobenzo[d]thiazol-2-amine] | 15 nM
12 | CC(=O)N1C[C@@H]2[C@H](C1)[C@H]2Nc1nc(OC[C@@]23CCCN2C[C@H](F)C3)nc2c(F)c(-c3ccc(F)c4sc(N)nc34)c(Cl)cc12 [Example 30, 1-((1R,5S,6s)-6-((7-(2-amino-7-fluorobenzo[d]thiazol-4-yl)-6-chloro-8-fluoro-2-(((2R,7aS)-2-fluorotetrahydro-1H-pyrrolizin-7a(5H)-yl)methoxy)quinazolin-4-yl)amino)-3-azabicyclo[3.1.0]hexan-3-yl)ethan-1-one] | 3.5 nM
13 | Nc1nc2c(-c3c(Cl)cc4c(NC5CCC5)nc(OC[C@@]56CCCN5C[C@H](F)C6)nc4c3F)ccc(F)c2s1 [Example 31, 4-(6-chloro-4-(cyclobutylamino)-8-fluoro-2-(((2R,7aS)-2-fluorotetrahydro-1H-pyrrolizin-7a(5H)-yl)methoxy)quinazolin-7-yl)-7-fluorobenzo[d]thiazol-2-amine] | 57 nM
14 | Nc1nc2c(-c3c(Cl)cc4c(NC56CC(C5)C6)nc(OC[C@@]56CCCN5C[C@H](F)C6)nc4c3F)ccc(F)c2s1 [Example 32, 4-(4-(bicyclo[1.1.1]pentan-1-ylamino)-6-chloro-8-fluoro-2-(((2R,7aS)-2-fluorotetrahydro-1H-pyrrolizin-7a(5H)-yl)methoxy)quinazolin-7-yl)-7-fluorobenzo[d]thiazol-2-amine] | 21 nM
15 | CC1CN(c2nc(OC[C@@]34CCCN3C[C@H](F)C4)nc3c(F)c(-c4ccc(F)c5sc(N)nc45)c(C(F)(F)F)cc23)C1 [Example 34, 7-fluoro-4-(8-fluoro-2-(((2R,7aS)-2-fluorotetrahydro-1H-pyrrolizin-7a(5H)-yl)methoxy)-4-(3-methylazetidin-1-yl)-6-(trifluoromethyl)quinazolin-7-yl)benzo[d]thiazol-2-amine] | 52 nM
16 | CC1CCN1c1nc(OC[C@@]23CCCN2C[C@H](F)C3)nc2c(F)c(-c3ccc(F)c4sc(N)nc34)c(C(F)(F)F)cc12 (some centres unmarked) [Example 35] | 30 nM
17 | CC1(C)CCN1c1nc(OC[C@@]23CCCN2C[C@H](F)C3)nc2c(F)c(-c3ccc(F)c4sc(N)nc34)c(C(F)(F)F)cc12 [Example 36, 4-(4-(2,2-dimethylazetidin-1-yl)-8-fluoro-2-(((2R,7aS)-2-fluorotetrahydro-1H-pyrrolizin-7a(5H)-yl)methoxy)-6-(trifluoromethyl)quinazolin-7-yl)-7-fluorobenzo[d]thiazol-2-amine] | 19 nM
18 | Nc1nc2c(-c3c(C(F)(F)F)cc4c(N5CC(F)(F)C5)nc(OC[C@@]56CCCN5C[C@H](F)C6)nc4c3F)ccc(F)c2s1 [Example 38, 4-(4-(3,3-difluoroazetidin-1-yl)-8-fluoro-2-(((2R,7aS)-2-fluorotetrahydro-1H-pyrrolizin-7a(5H)-yl)methoxy)-6-(trifluoromethyl)quinazolin-7-yl)-7-fluorobenzo[d]thiazol-2-amine] | 25 nM
19 | N#CCC1CN(c2nc(OC[C@@]34CCCN3C[C@H](F)C4)nc3c(F)c(-c4ccc(F)c5sc(N)nc45)c(C(F)(F)F)cc23)C1 [Example 40, 2-(1-(7-(2-amino-7-fluorobenzo[d]thiazol-4-yl)-8-fluoro-2-(((2R,7aS)-2-fluorotetrahydro-1H-pyrrolizin-7a(5H)-yl)methoxy)-6-(trifluoromethyl)quinazolin-4-yl)azetidin-3-yl)acetonitrile] | 12 nM
20 | N#CCCC1CN(c2nc(OC[C@@]34CCCN3C[C@H](F)C4)nc3c(F)c(-c4ccc(F)c5sc(N)nc45)c(C(F)(F)F)cc23)C1 [Example 41, 3-(1-(7-(2-amino-7-fluorobenzo[d]thiazol-4-yl)-8-fluoro-2-(((2R,7aS)-2-fluorotetrahydro-1H-pyrrolizin-7a(5H)-yl)methoxy)-6-(trifluoromethyl)quinazolin-4-yl)azetidin-3-yl)propanenitrile] | 12 nM
